In US7993921B2, “Cell cycle regulation and differentiation” (National Institutes of Health (NIH), priority 2007, dated 2011):

Tests used:
KLF9, Hr, DBP, BHLHB5 = assay: Transcription factor induction by T3 in OPCs (Affymetrix Mouse Genomic 430 2.0 chips); assay type: cell-based
Procedure: FIG. 57. KLF9, Hr, DBP, and BHLHB5 are induced in OPCs by T3. Transcription factor probe sets were induced >2-fold by T3 at early time points relative to untreated (+PDGF −T3) controls. OPCs were treated with T3 for either 1 day or 6 days in vitro with T3 (+PDGF +T3), or for only 3 hours with T3 following 1 day or 6 days in vitro in media lacking T3 (+PDGF −T3, then 3 hours +PDGF +T3). All samples were labeled and hybridized to Affymetrix Mouse Genomic 430 2.0 chips.
In OPCs cultured in saturating amounts of mitogens and T3, a small number of transcription factors are rapidly and robustly regulated in response to T3 presentation (as compared to control cultures maintained in mitogens in the absence of T3). These four genes are 1) Kruppel-Like Factor 9 (KLF9), also known as Basic Transcription Element Binding protein 1(BTEB1), 2) basic helix-loop-helix domain containing, class B5 (BHLHB5), also known as Beta3, 3) Hairless, (Hr), or ALUNC, AU, N, ba, bldy, hr, rh, rh-bmh, rhino, and 4) D site albumin promoter binding protein (DBP). KLF9, Hr, and DBP are all induced (2-6 fold) rapidly in OPCs in response to T3, before the OPCs initiate differentiation in response to T3 presentation (FIG. 57).

p57^Kip2 = p57^Kip2 expression in OPCs (RT-PCR, immunostaining of clones); assay type: cell-based, rat
Excerpt: p57^Kip2 was either over-expressed or reduced in levels in pure OPCs, and normal OL differentiation and OPC proliferation was observed. To test the necessity of p57^Kip2 in OL differentiation, knockdowns for p57^Kip2 were used to reduce p57^Kip2 levels in OPCs. p57^Kip2 levels were reduced by transfecting OPCs with siRNA directed against the p57^Kip2 transcript, and then cultured the transfected OPCs in media that stimulated OL differentiation. […] OPCs transfected with firefly luciferase- (cont) or p57^Kip2-targeting siRNA pools (Dharmacon) were cultured for 4 D.I.V. in −PDGF +T3 or +PDGF +T3 media and reduction in p57^Kip2 transcript levels by this method was confirmed by RT-PCR (27 cycles).
OL differentiation can be triggered by either by mitogen withdrawal or by the intrinsic timer coupled with exposure to T3 (Barres and Raff, Neuron 12:935-942 (1994)). Whereas either of these conditions will produce mature OLs, the initial genetic programs triggered by these two stimuli are not identical (Tokumoto et al., EMBO J. 20:5261-5268 (2001)). To more precisely determine how p57^Kip2 expression is induced, purified P8 OPCs were subjected to either mitogen withdrawal, T3 exposure, or both differentiation-promoting stimuli simultaneously (FIG. 48I). […]

[1] = test system: OPCs from the cortex and cerebellum; assay: Differentiation of OPCs from the cortex and cerebellum in response to T3; assay type: cell-based, rat; conditions: 7 days in vitro +PDGF +T3
Procedure: OPCs were purified via immunopanning specifically from the cortices or cerebellums of P7 Sprague-Dawley rats. These cells were then plated onto glass coverslips in the presence or absence of mitogens PDGF and NT3 (±PDGF) and presence or absence of thyroid hormone (±T3) and cultured for 3 (−PDGF) or 7 (+PDGF ±T3) days in vitro, with fresh media being supplied every 2-3 days. At the end of this time, cultures were stained for either CNPase expression (less mature) or MBP expression (more mature) as markers of OL differentiation. Percentages of healthy cells (as assessed by healthy nuclei visualized by DAPI staining) expressing indicated markers were quantified for each condition. […] All experiments analyzed in triplicate, ±S.E.M.

With `N[C@@H](Cc1cc(I)c(Oc2ccc(O)c(I)c2)c(I)c1)C(=O)O` [T3, triiodothyronine] the “KLF9, Hr and DBP induction in OPCs in response to T3” value (KLF9, Hr, DBP, BHLHB5; +PDGF +T3 vs +PDGF −T3 controls) was 2-6 fold, the “transcription factor probe sets (KLF9, Hr, DBP, BHLHB5) induced by T3” value (KLF9, Hr, DBP, BHLHB5; early time points relative to untreated (+PDGF −T3) controls) was greater than 2 fold and the “KLF9 induction by T3 in OPCs” value (KLF9, Hr, DBP, BHLHB5; within 3 hours of T3 exposure) was 4 fold. The “clones expressing uniformly high levels of p57^Kip2” value (p57^Kip2; 7 days in +PDGF +T3 medium, clonal density) was 15 out of 23, the “p57^Kip2 expression by semi-quantitative RT-PCR” value (p57^Kip2; T3 exposure, 6 DIV, purified P8 OPCs) was “did not induce” and the “expression of mature OL proteins (CNPase, MBP) in cerebellar vs cortical OPCs in response to T3” value [1] was “similarly”.
